Values quoted from earlier work in US12295729B2, “Apparatus and method for delivery of antimicrobial during a transdermal sampling and delivery process” (Georgetown University, priority 2015, dated 2025).

How the values were obtained:
[1] = tested on: Porphyromonas circumdentaria
[2] = tested on: Burkholderia thailandensis
[3] = tested on: Burkholderia pseudomallei
[4] = tested on: Prevotella melaninogenica
[5] = tested on: Aggregatibacter actinomycetemcomitans
[6] = tested on: Stenotrophomonas maltophilia
[7] = tested on: Achromobacter xylosoxidans

Measured: bacteria killing ability

LL-37 (LLGDFFRKSKEKIGKEFKRIVQRIKDFLRNLVPRTES; Antibacterial peptide LL-37; UniProt P49913 134-170, looked up) [antimicrobial peptide; the factotum human cathelicidin peptide]
kill: Bacillus anthracis | Streptococcus pneumonia | Treponema pallidum | Shigella sp. | [1] | [2] | Group A streptococcus | Tannerella forsythia | Haemophilus influenza | [3] | Escherichia coli | Salmonella sp. | Enterococcus faecalis | Helicobacter pylori | Borrelia spp. | Pasteurella multocida | Pseudomonas aeruginosa | [4] | Treponema denticola | Burkholderia cepacia | Streptococcus mutans | Klebsiella pneumonia | Leptospira interrogans | Brucella suis | Prevotella intermedia | Micrococcus luteus | [5] | Listeria monocytogenes | Porphyromonas gingivalis | Mannheimia haemolytica | Fusobacterium nucleatum | Staphylococcus aureus | Mycobacterium smegmatis | Francisella novicida | Nocardia sp. | Propionibacterium acnes | Mycobacterium bovis | Acinetobacter baumannii | Capnocytophaga spp. | Yersinia pestis | [6] | Lactobacillus casei | [7] | Prevotella loescheii | Group B Streptococcus
